Source: patent publication US7138361B2, “Herbicidal heterocycles” (E. I. du Pont de Nemours and Company, priority 2000, dated 2006)

Columns and labels:
Assay type in all cases: in vivo
[1] = tested on: Surinam grass (Brachiaria decumbens); assay: Test B postemergence
Summary of the method: (§1)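 Post-treatment, species sat 13–15 days under greenhouse conditions before visual scoring against controls, 0 (no effect) through 100 (complete control). Application preemergence to sown seeds or postemergence at 1- to 4-leaf stage, using a non-phytotoxic solvent/surfactant formulation.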

[2] = tested on: barnyardgrass (Echinochloa crus-galli); assay: Test B postemergence
Summary of the method: as §1

[3] = tested on: blackgrass (Alopecurus myosuroides); assay: Test B postemergence
Summary of the method: as §1

[4] = tested on: cocklebur (Xanthium strumarium); assay: Test B postemergence
Summary of the method: as §1

[5] = tested on: corn (Zea mays); assay: Test B postemergence
Summary of the method: as §1

[6] = tested on: crabgrass (Digitaria sanguinalis); assay: Test B postemergence
Summary of the method: as §1

[7] = tested on: giant foxtail (Setaria faberii); assay: Test B postemergence
Summary of the method: as §1

[8] = tested on: lambsquarters (Chenopodium album); assay: Test B postemergence
Summary of the method: as §1

[9] = tested on: morning glory (Ipomoea hederacea); assay: Test B postemergence
Summary of the method: as §1

[10] = tested on: pigweed (Amaranthus retroflexus); assay: Test B postemergence
Summary of the method: as §1

[11] = tested on: velvetleaf (Abutilon theophrasti); assay: Test B postemergence
Summary of the method: as §1

[12] = tested on: wheat (Triticum aestivum); assay: Test B postemergence
Summary of the method: as §1

[13] = tested on: wild oat (Avena fatua); assay: Test B postemergence
Summary of the method: as §1

[14] = tested on: Surinam grass (Brachiaria decumbens); assay: Test B preemergence
Summary of the method: as §1

[15] = tested on: barnyardgrass (Echinochloa crus-galli); assay: Test B preemergence
Summary of the method: as §1

[16] = tested on: cocklebur (Xanthium strumarium); assay: Test B preemergence
Summary of the method: as §1

[17] = tested on: corn (Zea mays); assay: Test B preemergence
Summary of the method: as §1

[18] = tested on: crabgrass (Digitaria sanguinalis); assay: Test B preemergence
Summary of the method: as §1

[19] = tested on: giant foxtail (Setaria faberii); assay: Test B preemergence
Summary of the method: as §1

[20] = tested on: lambsquarters (Chenopodium album); assay: Test B preemergence
Summary of the method: as §1

[21] = tested on: morning glory (Ipomoea hederacea); assay: Test B preemergence
Summary of the method: as §1

[22] = tested on: pigweed (Amaranthus retroflexus); assay: Test B preemergence
Summary of the method: as §1

[23] = tested on: rice (Oryza saliva); assay: Test B preemergence
Summary of the method: as §1

[24] = tested on: velvetleaf (Abutilon theophrasti); assay: Test B preemergence
Summary of the method: as §1

[25] = tested on: barnyardgrass (Echinochloa crus-galli); assay: Test C flooded paddy test; settings: for Barnyardgrass plant response rating: Flooded Paddy, scale 0 to 100, 0 no effect, 100 complete control; for Plant response rating, Barnyardgrass: flooded paddy test, scale 0 to 100 (0 no effect, 100 complete control)
Summary of the method: (§2)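 Ratings come from visual comparison with control plants after 12 to 14 days in the greenhouse. Each species was at the 2-leaf stage when the flooded paddy was treated. Scores run from 0, meaning no effect, to 100, meaning complete control.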

[26] = tested on: duck salad (Heteranthera limosa); assay: Test C flooded paddy test; settings: for Ducksalad plant response rating: Flooded Paddy, scale 0 to 100, 0 no effect, 100 complete control; for Plant response rating, Ducksalad: flooded paddy test, scale 0 to 100 (0 no effect, 100 complete control)
Summary of the method: as §2

[27] = tested on: rice (Oryza saliva); assay: Test C flooded paddy test; settings: for Rice plant response rating: Flooded Paddy, scale 0 to 100, 0 no effect, 100 complete control; for Plant response rating, Rice: flooded paddy test, scale 0 to 100 (0 no effect, 100 complete control)
Summary of the method: as §2

[28] = tested on: smallflower flatsedge (Cyperus difformis); assay: Test C flooded paddy test; settings: for Flatsedge plant response rating: Flooded Paddy, scale 0 to 100, 0 no effect, 100 complete control; for Plant response rating, Flatsedge: flooded paddy test, scale 0 to 100 (0 no effect, 100 complete control)
Summary of the method: as §2

[29] = Rate 125 g/ha, scale 0 to 100, 0 no effect, 100 complete control
[30] = Rate 500 g/ha, scale 0 to 100, 0 is no effect, 100 is complete control, 13 to 15 days
[31] = Preemergence, Rate 500 g/ha, scale 0 to 100, 0 no effect, 100 complete control
[32] = preemergence, Rate 125 g/ha, scale of 0 to 100 where 0 is no effect and 100 is complete control, 13 to 15 days

CCCCC(CCCC)c1ccn(C2OCN(c3cccc(C(F)(F)F)c3)C2=O)n1 (centres unmarked) [Compound 114]
20: Plant response rating, Barnyardgrass [2, 30] | Plant response rating, Crabgrass [6, 29] | Plant response rating, Wheat [12, 29] | Plant response rating, Corn [17, 32]
0: Plant response rating, Barnyardgrass [2, 29] | Plant response rating, Blackgrass [3, 29] | Plant response rating, Blackgrass [3, 30] | Plant response rating, Corn [5, 29] | Plant response rating, Corn [5, 30] | Plant response rating, Foxtail, Giant [7, 29] | Plant response rating, Foxtail, Giant [7, 30] | Plant response rating, Velvetleaf [11, 29] | Plant response rating, Velvetleaf [11, 30] | Plant response rating, Surinam grass [14, 31] | Plant response rating, Surinam grass [14, 32] | Plant response rating, Barnyardgrass [15, 31] | Plant response rating, Barnyardgrass [15, 32] | Plant response rating, Cocklebur [16, 31] | Plant response rating, Cocklebur [16, 32] | Plant response rating, Crabgrass [18, 31] | Plant response rating, Crabgrass [18, 32] | Plant response rating, Foxtail, Giant [19, 31] | Plant response rating, Foxtail, Giant [19, 32] | Plant response rating, Morningglory [21, 32] | Plant response rating, Rice [23, 31] | Plant response rating, Rice [23, 32] | Plant response rating, Velvetleaf [24, 31] | Plant response rating, Velvetleaf [24, 32] | Barnyardgrass plant response rating ([25]; Rate 250 g/ha) | Barnyardgrass plant response rating ([25]; Rate 500 g/ha) | Plant response rating, Barnyardgrass ([25]; Rate 62 g/ha) | Plant response rating, Barnyardgrass ([25]; Rate 125 g/ha) | Ducksalad plant response rating ([26]; Rate 250 g/ha) | Ducksalad plant response rating ([26]; Rate 500 g/ha) | Plant response rating, Ducksalad ([26]; Rate 62 g/ha) | Plant response rating, Ducksalad ([26]; Rate 125 g/ha) | Rice plant response rating ([27]; Rate 250 g/ha) | Rice plant response rating ([27]; Rate 500 g/ha) | Plant response rating, Rice ([27]; Rate 62 g/ha) | Plant response rating, Rice ([27]; Rate 125 g/ha) | Flatsedge plant response rating ([28]; Rate 250 g/ha) | Flatsedge plant response rating ([28]; Rate 500 g/ha) | Plant response rating, Flatsedge ([28]; Rate 62 g/ha) | Plant response rating, Flatsedge ([28]; Rate 125 g/ha)
100: Plant response rating, Lambsquarters [8, 30] | Plant response rating, Pigweed [10, 30] | Plant response rating, Lambsquarters [20, 31] | Plant response rating, Pigweed [22, 31]
50: Plant response rating, Cocklebur [4, 29] | Plant response rating, Wild Oat [13, 30]
90: Plant response rating, Lambsquarters [8, 29] | Plant response rating, Pigweed [10, 29]
60: Plant response rating, Cocklebur [4, 30] | Plant response rating, Morningglory [9, 30]
30: Plant response rating, Surinam grass [1, 29] | Plant response rating, Surinam grass [1, 30] | Plant response rating, Crabgrass [6, 30] | Plant response rating, Morningglory [9, 29] | Plant response rating, Wheat [12, 30] | Plant response rating, Wild Oat [13, 29] | Plant response rating, Corn [17, 31] | Plant response rating, Lambsquarters [20, 32] | Plant response rating, Morningglory [21, 31] | Plant response rating, Pigweed [22, 32]

CCCCC(CCCC)c1ccn(C2OCN(c3cccc(OC(F)(F)F)c3)C2=O)n1 (centres unmarked) [Compound 113]
100: Plant response rating, Lambsquarters [8, 30] | Plant response rating, Pigweed [10, 29] | Plant response rating, Pigweed [10, 30]
70: Plant response rating, Cocklebur [4, 30]
30: Plant response rating, Lambsquarters [8, 29] | Plant response rating, Morningglory [9, 30] | Plant response rating, Wheat [12, 29] | Plant response rating, Wheat [12, 30]
20: Plant response rating, Foxtail, Giant [7, 30]
0: Plant response rating, Surinam grass [1, 29] | Plant response rating, Surinam grass [1, 30] | Plant response rating, Barnyardgrass [2, 29] | Plant response rating, Barnyardgrass [2, 30] | Plant response rating, Blackgrass [3, 29] | Plant response rating, Blackgrass [3, 30] | Plant response rating, Cocklebur [4, 29] | Plant response rating, Corn [5, 29] | Plant response rating, Corn [5, 30] | Plant response rating, Foxtail, Giant [7, 29] | Plant response rating, Morningglory [9, 29] | Plant response rating, Velvetleaf [11, 29] | Plant response rating, Velvetleaf [11, 30] | Plant response rating, Surinam grass [14, 31] | Plant response rating, Surinam grass [14, 32] | Plant response rating, Barnyardgrass [15, 31] | Plant response rating, Barnyardgrass [15, 32] | Plant response rating, Cocklebur [16, 31] | Plant response rating, Cocklebur [16, 32] | Plant response rating, Corn [17, 31] | Plant response rating, Corn [17, 32] | Plant response rating, Crabgrass [18, 31] | Plant response rating, Crabgrass [18, 32] | Plant response rating, Foxtail, Giant [19, 31] | Plant response rating, Foxtail, Giant [19, 32] | Plant response rating, Lambsquarters [20, 31] | Plant response rating, Lambsquarters [20, 32] | Plant response rating, Morningglory [21, 31] | Plant response rating, Morningglory [21, 32] | Plant response rating, Pigweed [22, 31] | Plant response rating, Pigweed [22, 32] | Plant response rating, Rice [23, 31] | Plant response rating, Rice [23, 32] | Plant response rating, Velvetleaf [24, 31] | Plant response rating, Velvetleaf [24, 32] | Barnyardgrass plant response rating ([25]; Rate 250 g/ha) | Barnyardgrass plant response rating ([25]; Rate 500 g/ha) | Plant response rating, Barnyardgrass ([25]; Rate 62 g/ha) | Plant response rating, Barnyardgrass ([25]; Rate 125 g/ha) | Ducksalad plant response rating ([26]; Rate 250 g/ha) | Ducksalad plant response rating ([26]; Rate 500 g/ha) | Plant response rating, Ducksalad ([26]; Rate 62 g/ha) | Plant response rating, Ducksalad ([26]; Rate 125 g/ha) | Rice plant response rating ([27]; Rate 250 g/ha) | Rice plant response rating ([27]; Rate 500 g/ha) | Plant response rating, Rice ([27]; Rate 62 g/ha) | Plant response rating, Rice ([27]; Rate 125 g/ha) | Flatsedge plant response rating ([28]; Rate 250 g/ha) | Flatsedge plant response rating ([28]; Rate 500 g/ha) | Plant response rating, Flatsedge ([28]; Rate 62 g/ha) | Plant response rating, Flatsedge ([28]; Rate 125 g/ha)
40: Plant response rating, Crabgrass [6, 29] | Plant response rating, Crabgrass [6, 30] | Plant response rating, Wild Oat [13, 29] | Plant response rating, Wild Oat [13, 30]
